# In US20260306644A1, “ANTIBODY RECRUITING MOLECULES FOR THE TREATMENT OF CORONAVIRUS DISEASE-19” (priority 2023, published 2026):
# Several values for one entry are separate records, joined by “and”; a condition that tells them apart may be missing. Identical values can stand only once. Like-named read-outs stand apart in the source and are kept apart here. Positions of bridges follow the written chain, without caps; N, C: chain ends. Non-standard residues stand in square brackets, D forms with d. Residues, ends and D or L forms follow the SMILES beside them. *: point of attachment. X1 = O=C(CCCC[C@@H]1SC[C@@H]2NC(=O)N[C@@H]21)NCCOCCOCCOCCOCCN*; hCys = N[C@@H](CCS)C(=O)O
# Assays:
# [1] = target: T1, SARS-CoV-2 Spike A (wild-type) (Severe acute respiratory syndrome coronavirus 2, UniProt P0DTC2); assay: MSD ACE2 competition assay (inhibition of Spike binding with ACE2, ECL), A (wild-type); conditions: IC50 Wild Type, Wild Type Spike
# T1 construct: purchased Meso Scale Diagnostics, LLC V-PLEX SARS-CoV-2 Panel 13 (ACE2) Kit / Panel 23 (ACE2) Kit
# [2] = test system: Spike RBD coated magnetic beads / RAW 264.7 macrophages; assay: Antibody-dependent cellular phagocytosis (ADCP), RAW 264.7 macrophages and Spike RBD coated magnetic beads, flow cytometry; assay type: cell-based; conditions: 37° C., 2 hours, read-out: SARS-COV-2 ADCP EC50
# Experimental: The ability of the compounds to mediate antibody-dependent cellular phagocytosis (ADCP) was assessed using RAW 264.7 macrophages and Spike RBD coated magnetic beads (https://www.acrobiosystems.com/P3194-SARS-CoV-2-Spike-RBD-coupled-Magnetic-Beads.html). Spike RBD coated magnetic beads (3 ul per well) were added to each well of a round bottom 96-well plates. RAW264.7 cells (50,000 cells per well) were added to the beads. Next, the compounds were administered to predetermined final concentrations. The cell-bead mixtures were incubated at 37° C. for 2 hours. The mixtures were then analyzed by flow cytometry.
# SARS-CoV-2 Spike protein = SARS-CoV-2 Spike protein (Severe acute respiratory syndrome coronavirus 2, UniProt P0DTC2); assay: Ternary binding of SARS-CoV-2 Spike protein (293T cells expressing Spike-GFP, IgG-AF647, flow cytometry); assay type: cell-based; conditions: 293T cells expressing Spike-GFP; IgG-AF647 10 μg/ml; repeat values/batches listed separately; read-out: SARS-CoV-2 Ternary binding EC50
# [3] = test system: live SARS-CoV-2 Virus (wildtype); assay: Neutralization of live SARS-CoV-2 virus, wildtype (Vero E6 cells, nucleoprotein ELISA); assay type: cell-based
# native human IgG1 = assay: Ligand binding to native human IgG1 by Bio-Layer Interferometry (BLI); conditions: read-out: Octet Native IgG1 Binding KD
# Experimental: The binding of exemplary compounds to native human IgG1 was measured by Bio-Layer Interferometry (BLI) using the ForteBio Octet® 96e platform (Fremont, CA). The binding assay was performed using the Protein L (ProL) Dip and Read Biosensors (ForteBio 18-5085) in a 96-well black flat bottom assay plate (Greiner Bio-One 655209; Monroe, NC) with the following steps: (1) 60 seconds of baseline; (2) 600 seconds of loading with 50 μg/ml of Native Human IgG1 (Abcam ab184886; Cambridge, UK); (3) 60 seconds of baseline; (4) 180 seconds of association with a dilution series of ligand in Assay Buffer (PBS (Gibco 10010; Grand Island, New York), 0.1% (w/v) BSA (American Bio AB01088-00100; Canton, MA), 0.05% (v/v) Tween 20 (Fisher BioReagents™ BP337-500; Pittsburgh, PA), pH 7.4), consisting of seven concentrations. The eighth tip in the column was run in Assay Buffer to serve as a reference sensor, the signal of which was subtracted from the sample sensors. (5) 180 seconds of dissociation in Assay Buffer.
# The data was analyzed with the Octet® Data Analysis HT software. The processed data was globally fit to a 1:1 binding model for determination of the equilibrium dissociation constant (KD) and is shown in Table 7.
# [4] = target: T2, SARS-CoV-2 Spike Glycoprotein RBD protein (Severe acute respiratory syndrome coronavirus 2, UniProt P0DTC2); assay: Binding of biotinylated ligands to SARS-CoV-2 Spike Glycoprotein RBD protein by ELISA; conditions: ELISA; biotinylated ligands; Spike RBD; read-out: ELISA SARS-CoV-2 Spike RBD Protein Binding EC50
# T2 construct: SARS-CoV-2 (COVID-19) S Protein RBD, His Tag; purchased Acro Biosystems SPD-C52H3
# Experimental: Materials. The binding affinity of biotinylated ligands to SARS-CoV-2 Spike Glycoprotein RBD protein was determined by ELISA. The binding assay was performed using the following steps: (1) assay plates (PE B&W Isoplate 96-well Flat Bottom, High Bindi-g - Perkin Elmer 6005580) were coated with 100 ul Anti-6× His tag antibody (Anti-6× His tag Antibody; Abcam ab15149, Mouse Monoclonal; Cambridge, UK) at 5 μg/ml in PBS, incubate 1 hour at 37° C. without shaking. The plates were washed (each wash step of this assay includes four 1-minute washes with 200 ul phosphate-buffered saline-0.05% (w/v) Tween® 20 detergent (PBST)). (2) Plates were blocked with 200 ul PBST-5% BSA (PBSTB; American Bio AB01088-00100; Canton, MA), for an hour at room temperature on a plate shaker (400 rpm). The plates were washed. […] The plates were washed. (4) Ligands were added, 100 ul at a concentration range of 0.1 mM to 100 nM in PBSTB, and incubated for 1 hour at room temperature on a plate shaker (200 RPM). The plates were washed. (5) NeutrAvidin™-HRP (Invitrogen 31030; Waltham, MA) is added, 100 ul at a dilution of 1:20,000 in PBSTB, and incubated for 1 hour at room temperature on a plate shaker (200 RPM). The plates were washed. (6) SuperSignal ELISA Pico Chemiluminescent Substrate (Thermo Scientific 37069; Waltham, MA) was added and incubated for 5 minutes at room temperature on a plate shaker (200 RPM).
# [5] = live virus neutralization, isolate Seattle WA (IITRI), Vero E6
Molecule,IC50 [1],EC50 [2],EC50 (SARS-CoV-2 Spike protein),"EC50 [3, 5] [nM]",Kd (native human IgG1) [nM],EC50 ([3]; read-out: Seattle WA (IITRI) EC50) [nM],EC50 [4] [nM]
Ac-DKEWILQKIYEIMRLLDELGHAEASMRVSDLIYEFMKKGDERLLEEAERLLEEVERDCAWHLGELVWCT (disulfide 58-68) [Compound 110],< 10 nM,1.5 nM and 1.2 nM,0.14 nM and 0.13 nM,0.0058,–,–,–
Ac-DKEWILQKIYEIMRLLDELGHAEASMRVSDLIYEFMKKGPASPASPASPASDCAWHLGELVWCT (disulfide 53-63) [Compound 167],10.8 nM,0.11 nM,0.24 nM,–,< 1,–,–
CC[C@H](C)[C@H](NC(=O)[C@H](CC(C)C)NC(=O)[C@H](CC(=O)O)NC(=O)[C@H](CO)NC(=O)[C@@H](NC(=O)[C@H](CCCNC(=N)N)NC(=O)[C@H](CCSC)NC(=O)[C@H](CO)NC(=O)[C@H](C)NC(=O)[C@H](CCC(=O)O)NC(=O)[C@H](C)NC(=O)[C@H](Cc1c[nH]cn1)NC(=O)CNC(=O)[C@H](CC(C)C)NC(=O)[C@H](CCC(=O)O)NC(=O)[C@H](CC(=O)O)NC(=O)[C@H](CC(C)C)NC(=O)[C@H](CC(C)C)NC(=O)[C@H](CCCNC(=N)N)NC(=O)[C@H](CCSC)NC(=O)[C@@H](NC(=O)[C@H](CCC(=O)O)NC(=O)[C@H](Cc1ccc(O)cc1)NC(=O)[C@@H](NC(=O)[C@H](CCCCN)NC(=O)[C@H](CCC(N)=O)NC(=O)[C@H](CC(C)C)NC(=O)[C@@H](NC(=O)[C@H](Cc1c[nH]c2ccccc12)NC(=O)[C@H](CCC(=O)O)NC(=O)[C@H](CCCCN)NC(=O)[C@H](CC(=O)O)NC(=O)CCOCCOCCOCCOCCOCCOCCOCCOCCNC(=O)CCOCCOCCOCCOCCOCCOCCOCCOCCC(=O)N[C@@H](CC(=O)O)C(=O)N[C@H]1CSSC[C@@H](C(=O)N[C@H](C(N)=O)[C@@H](C)O)NC(=O)[C@H](Cc2c[nH]c3ccccc23)NC(=O)[C@H](C(C)C)NC(=O)[C@H](CC(C)C)NC(=O)[C@H](CCC(=O)O)NC(=O)CNC(=O)[C@H](CC(C)C)NC(=O)[C@H](Cc2c[nH]cn2)NC(=O)[C@H](Cc2c[nH]c3ccccc23)NC(=O)[C@H](C)NC1=O)[C@@H](C)CC)[C@@H](C)CC)[C@@H](C)CC)C(C)C)C(=O)N[C@@H](Cc1ccc(O)cc1)C(=O)N[C@@H](CCC(=O)O)C(=O)N[C@@H](Cc1ccccc1)C(=O)N[C@@H](CCSC)C(=O)N[C@@H](CCCCN)C(=O)N[C@@H](CCCCN)C(=O)NCC(=O)N[C@@H](CC(=O)O)C(=O)N[C@@H](CCC(=O)O)C(=O)N[C@@H](CCCNC(=N)N)C(=O)N[C@@H](CC(C)C)C(=O)N[C@@H](CC(C)C)C(=O)N[C@@H](CCC(=O)O)C(=O)N[C@@H](CCC(=O)O)C(=O)N[C@@H](C)C(=O)N[C@@H](CCC(=O)O)C(=O)N[C@@H](CCCNC(=N)N)C(=O)N[C@@H](CC(C)C)C(=O)N[C@@H](CC(C)C)C(=O)N[C@@H](CCC(=O)O)C(=O)N[C@@H](CCC(=O)O)C(=O)N[C@H](C(=O)N[C@@H](CCC(=O)O)C(=O)N[C@@H](CCCNC(=N)N)C(N)=O)C(C)C [Compound 128],–,0.045 nM and 0.052 nM,–,–,–,0.042,–
DKEWILQKIYEIMRLLDELGHAEASMRVSDLIYEFMKKGDERLLEEAERLLEEVERDCAWHLGELVWCT (disulfide 58-68) [Compound 111],1.39 nM,–,–,0.14,–,–,–
Ac-DCAWHLGELVWCTDKEWILQKIYEIMRLLDELGHAEASMRVSDLIYEFMKKGDERLLEEAERLLEEVER (disulfide 2-12) [Compound 120],< 10 nM and 1.57 nM,1.9 nM and 1.8 nM,0.33 nM and 0.31 nM,0.001,–,–,–
CC[C@H](C)[C@@H]1NC(=O)[C@H](Cc2c[nH]c3ccccc23)NC(=O)[C@H](CCC(=O)O)NC(=O)CSCC[C@@H](C(=O)NCCOCCOCCOCCOCCNC(=O)CCCC[C@@H]2SC[C@@H]3NC(=O)N[C@@H]32)NC(=O)[C@H](CCCCN)NC(=O)[C@H](CCCCN)NC(=O)[C@H](CCSC)NC(=O)[C@H](Cc2ccccc2)NC(=O)[C@H](CCC(=O)O)NC(=O)[C@H](Cc2ccc(O)cc2)NC(=O)[C@H]([C@@H](C)CC)NC(=O)[C@H](CC(C)C)NC(=O)[C@H](CC(=O)O)NC(=O)[C@H](CO)NC(=O)[C@H](C(C)C)NC(=O)[C@H](CCCNC(=N)N)NC(=O)[C@H](CCSC)NC(=O)[C@H](CO)NC(=O)[C@H](C)NC(=O)[C@H](CCC(=O)O)NC(=O)[C@H](C)NC(=O)[C@H](Cc2c[nH]cn2)NC(=O)CNC(=O)[C@H](CC(C)C)NC(=O)[C@H](CCC(=O)O)NC(=O)[C@H](CC(=O)O)NC(=O)[C@H](CC(C)C)NC(=O)[C@H](CC(C)C)NC(=O)[C@H](CCCNC(=N)N)NC(=O)[C@H](CCSC)NC(=O)[C@H]([C@@H](C)CC)NC(=O)[C@H](CCC(=O)O)NC(=O)[C@H](Cc2ccc(O)cc2)NC(=O)[C@H]([C@@H](C)CC)NC(=O)[C@H](CCCCN)NC(=O)[C@H](CCC(N)=O)NC(=O)[C@H](CC(C)C)NC1=O [Compound 251] ({CH2CO}-EWILQKIYEIMRLLDELGHAEASMRVSDLIYEFMKK[hCys]-X1; thioether N-37),–,–,0.08 nM,–,–,–,0.92
